Source: paper PMC10216478, “Development of a Non-Peptide Angiotensin II Type 1 Receptor Ligand by Structural Modification of Olmesartan as a Biased Agonist” (Biomedicines, 2023)
Where a chain is given by its changes, count along the chain named.

How the values were obtained:
AT1 Q257A receptor = target: T1, AT1 Q257A receptor (Rattus norvegicus, UniProt P25095, Q257A); assay: Competition binding study, 125I-[Sar1,Ile8]Ang II, AT1 Q257A receptor; settings: competition with 125I-[Sar1,Ile8]Ang II, n = 3, mean ± standard error, read-out: Binding affinity (Kd)
T1 construct: expressed in transfected cells; host or cells: COS7
T1 sequence (P25095 1-359 Q257A): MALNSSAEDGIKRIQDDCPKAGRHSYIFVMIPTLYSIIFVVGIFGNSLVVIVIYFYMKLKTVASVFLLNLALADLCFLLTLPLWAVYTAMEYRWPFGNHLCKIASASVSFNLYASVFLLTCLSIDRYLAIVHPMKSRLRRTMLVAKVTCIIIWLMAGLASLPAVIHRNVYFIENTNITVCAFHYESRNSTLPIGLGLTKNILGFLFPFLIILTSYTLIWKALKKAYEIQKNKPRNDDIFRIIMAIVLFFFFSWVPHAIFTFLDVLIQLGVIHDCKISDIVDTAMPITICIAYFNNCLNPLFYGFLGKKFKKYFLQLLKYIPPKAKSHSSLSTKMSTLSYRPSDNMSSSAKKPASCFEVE
Text: (§1) We mutated four amino acids in transmembrane (TM) III, VI, and VII in the AT1 receptor (L112A, Q257A, Y292A, and N295A receptors). We determined the mutation sites of the AT1 receptor according to ARB, which produced olmesartan derivatives with different interactions and functions toward the AT1 receptor, as previously reported by Zhang et al., since the additional 4-hydroxybenzyl groups of R781253 and R794847 were predicted to extend to a sub-pocket on the bottom of the AT1 receptor ligand-binding pocket consisting of Leu^112 and Gln^257. In addition, since the biased ligand TRV027 induced changes near the NPxxY motif in TM domain 7 that are related to receptor activation, Tyr^292 and Asn^295 in the AT1 receptor were mutated.
(§2) The synthetic rat AT1 receptor gene, which was cloned in the shuttle expression vector pMT-2, was used for expression and mutagenesis, as described previously. COS7 cells (No. CRL-1651, ATCC, Manassas, VA, USA) were cultured in 10% fetal bovine serum (FBS) and penicillin- and streptomycin-supplemented Dulbecco’s modified Eagle’s essential medium (PS-DMEM) in 5% CO2 at 37 °C. In the experiments, cells were grown without a cell-growth supplement. To express the AT1 receptor protein, 10 µg of purified plasmid DNA per 10^7 cells was used in the transfection. Wild-type and mutated AT1 receptors were transiently transfected into cells using Lipofectamine 2000 liposomal reagent (Roche Applied Science, Penzberg, Germany). Cells were plated and grown and were 70–90% confluent at the time of transfection. We incubated plasmid DNA (10 µg)–lipid (10 µL) complexes for 5 min at room temperature and added and incubated the complexes with cells for 24 h. We then analyzed the parameters in transfected cells. Cell viability was >95% according to trypan blue exclusion analysis in the control experiments. Transfected cells that had been cultured for 48–72 h were harvested. Cell membranes were prepared using the nitrogen Parr bomb disruption or freeze–thaw methods.
(§3) The Kd (nM) values of receptor binding were determined with ^125I-[Sar^1, Ile^8]AngII-binding experiments under equilibrium conditions. Binding kinetics were determined following the methods described in the literature. We carried out binding by using ^125I-[Sar^1, Ile^8] AngII (2200 Ci/mmol) and an increasing concentration (10^−11–10^−5 M) of each unlabeled compound. Nonspecific binding of ^125I-[Sar^1, Ile^8] Ang II was determined in the presence of a high concentration (10^−6 M) of unlabeled [Sar^1, Ile^8]. Next, the incubation mixture was separated by vacuum filtration through Whatman GF/C glass filters (Disposable Filter Funnels Grade GF/C, GE Healthcare), and presoaked with 0.1% polyethylenimine. The filter was washed with 3 mL of ice-cold stop buffer (25 mM Tris–HCl, pH 7.4, 1 mM MgCl2). The radioactivity trapped on the filters was quantified using an automatic γ-counter. The percentage (%) of specific binding of ^125I-[Sar^1, Ile^8]Ang II was calculated using the following formula: 100 × (% total binding of ^125I-[Sar^1, Ile^8]Ang II—nonspecific binding of ^125I-[Sar^1, Ile^8]Ang II)/(% total binding of ^125I-[Sar^1, Ile^8]Ang II).

AT1 N295A receptor = target: T2, AT1 N295A receptor (Rattus norvegicus, UniProt P25095, N295A); assay: Competition binding study, 125I-[Sar1,Ile8]Ang II, AT1 N295A receptor; settings: competition with 125I-[Sar1,Ile8]Ang II, n = 3, mean ± standard error, read-out: Binding affinity (Kd)
T2 construct: expressed in transfected cells; host or cells: COS7
T2 sequence (P25095 1-359 N295A): T1 sequence (P25095 1-359 Q257A) with A257Q, N295A
Text: as §1, §2, §3

CCCc1nc(C(C)(C)O)c(C(N)=O)n1Cc1ccc(-c2cc(Cc3ccc(O)cc3)ccc2-c2nnn[nH]2)cc1 [R794847]
Kd (AT1 Q257A receptor): 2.7 ± 0.8 nM | Kd (AT1 N295A receptor): > 10000 nM

CCCc1nc(C(C)(C)O)c(C(=O)O)n1Cc1ccc(-c2cc(Cc3ccc(O)cc3)ccc2-c2nnn[nH]2)cc1 [R781253]
Kd (AT1 Q257A receptor): 14 ± 6 nM | Kd (AT1 N295A receptor): > 10000 nM

CCCc1nc(C(C)(C)O)c(C(N)=O)n1Cc1ccc(-c2ccccc2-c2nnn[nH]2)cc1 [R239470]
Kd (AT1 Q257A receptor): 20 ± 2 nM | Kd (AT1 N295A receptor): 69 ± 8 nM

CCCc1nc(C(C)(C)O)c(C(=O)O)n1Cc1ccc(-c2ccccc2-c2nnn[nH]2)cc1 [Olmesartan, olmesartan]
Kd (AT1 Q257A receptor): 228 ± 38 nM | Kd (AT1 N295A receptor): 334 ± 105 nM
